Measurements from ChEMBL document CHEMBL4613209, “Quinolone hybrids and their anti-cancer activities: An overview” (Eur J Med Chem, 2019).

Target: RAC-gamma serine/threonine-protein kinase (Homo sapiens, UniProt Q9Y243)
Assay: Inhibition of PKBgamma (unknown origin)
Conditions: not given

RAC-gamma serine/threonine-protein kinase, sequence (Q9Y243 whole entry): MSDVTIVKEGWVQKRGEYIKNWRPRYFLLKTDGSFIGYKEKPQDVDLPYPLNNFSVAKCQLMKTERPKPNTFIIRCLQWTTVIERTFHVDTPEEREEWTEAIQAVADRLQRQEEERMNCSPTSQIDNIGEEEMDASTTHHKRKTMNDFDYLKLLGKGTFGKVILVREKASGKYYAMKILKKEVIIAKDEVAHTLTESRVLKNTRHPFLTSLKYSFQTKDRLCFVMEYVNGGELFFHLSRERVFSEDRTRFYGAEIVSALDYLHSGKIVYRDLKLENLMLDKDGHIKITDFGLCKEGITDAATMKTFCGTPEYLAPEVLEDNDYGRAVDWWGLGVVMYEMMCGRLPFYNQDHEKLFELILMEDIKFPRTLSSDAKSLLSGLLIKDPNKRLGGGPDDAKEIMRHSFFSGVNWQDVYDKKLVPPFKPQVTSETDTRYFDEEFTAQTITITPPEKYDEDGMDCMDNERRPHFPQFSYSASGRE

SMILES | IC50
Cn1c(=O)c(C(=O)/C=C/c2nc3cc(F)ccc3[nH]2)c(-c2ccccc2)c2cc(Cl)ccc21 | 1.64 to 44.5 µM
O=C(/C=C/c1nc2cc(F)ccc2[nH]1)c1c(-c2ccc(F)cc2)c2cc(F)ccc2[nH]c1=O | 1.64 to 44.5 µM
O=C(/C=C/c1nc2cc(Br)ccc2[nH]1)c1c(-c2ccccc2)c2cc(Cl)ccc2[nH]c1=O | 1.64 to 44.5 µM
O=C(/C=C/c1nc2ccccc2[nH]1)c1c(-c2ccccc2)c2cc(Br)ccc2[nH]c1=O | 1.64 to 44.5 µM

System: SK-MEL3
Assay: Cytotoxicity against human SK-MEL-3 cells assessed as reduction in cell viability after 72 hrs by MTT assay
Type: functional, cell-based
Conditions: SK-MEL3, 72 h

SMILES | IC50
O=C(O)c1cn(C2CC2)c2cc(N3CCN(C/C(=N/OCc4ccc(Cl)cc4)c4ccco4)CC3)c(F)cc2c1=O | ≤ 10 µM

System: A 172
Assay: Cytotoxicity against human A172 cells assessed as reduction in cell viability after 72 hrs by MTT assay
Type: functional, cell-based
Conditions: A 172, 72 h

SMILES | IC50
O=C(O)c1cn(C2CC2)c2cc(N3CCN(C/C(=N/OCc4ccc(Cl)cc4)c4ccco4)CC3)c(F)cc2c1=O | ≤ 10 µM

System: A549
Assay: Cytotoxicity against human A549 cells assessed as reduction in cell viability after 72 hrs by MTT assay
Type: functional, cell-based
Conditions: A549, 72 h

SMILES | IC50
O=C(O)c1cn(C2CC2)c2cc(N3CCN(C/C(=N/OCc4ccc(Cl)cc4)c4ccco4)CC3)c(F)cc2c1=O | ≤ 10 µM

Target: T1, Inhibitor of nuclear factor kappa-B kinase subunit beta (Homo sapiens, UniProt O14920)
T1 sequence (O14920 whole entry): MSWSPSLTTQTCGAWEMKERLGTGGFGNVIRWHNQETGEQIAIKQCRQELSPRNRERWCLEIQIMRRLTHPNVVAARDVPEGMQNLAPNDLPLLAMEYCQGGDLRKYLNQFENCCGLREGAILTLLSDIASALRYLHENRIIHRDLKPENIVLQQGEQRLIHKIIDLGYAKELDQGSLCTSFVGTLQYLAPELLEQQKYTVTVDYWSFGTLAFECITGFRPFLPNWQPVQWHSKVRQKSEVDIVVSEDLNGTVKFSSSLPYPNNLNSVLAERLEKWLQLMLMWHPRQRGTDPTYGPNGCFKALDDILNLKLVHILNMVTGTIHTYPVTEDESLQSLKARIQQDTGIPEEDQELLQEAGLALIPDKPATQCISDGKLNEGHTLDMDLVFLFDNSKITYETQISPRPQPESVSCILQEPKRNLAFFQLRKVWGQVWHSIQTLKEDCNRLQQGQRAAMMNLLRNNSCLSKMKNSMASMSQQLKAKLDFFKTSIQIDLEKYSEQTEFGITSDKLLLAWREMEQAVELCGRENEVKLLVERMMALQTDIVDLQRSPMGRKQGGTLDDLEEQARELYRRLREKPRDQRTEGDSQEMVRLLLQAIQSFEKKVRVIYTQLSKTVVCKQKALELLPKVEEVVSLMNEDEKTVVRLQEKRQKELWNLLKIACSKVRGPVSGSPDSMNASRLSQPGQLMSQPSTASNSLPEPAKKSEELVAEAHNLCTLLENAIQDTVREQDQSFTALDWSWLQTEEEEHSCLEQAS
Assay: Inhibition of IKKbeta (unknown origin)
Conditions: not given

SMILES | IC50
Cn1c(=O)c(C(=O)/C=C/c2nc3cc(F)ccc3[nH]2)c(-c2ccccc2)c2cc(Cl)ccc21 | 1.64 to 44.5 µM
O=C(/C=C/c1nc2cc(F)ccc2[nH]1)c1c(-c2ccc(F)cc2)c2cc(F)ccc2[nH]c1=O | 1.64 to 44.5 µM
O=C(/C=C/c1nc2cc(Br)ccc2[nH]1)c1c(-c2ccccc2)c2cc(Cl)ccc2[nH]c1=O | 1.64 to 44.5 µM
O=C(/C=C/c1nc2ccccc2[nH]1)c1c(-c2ccccc2)c2cc(Br)ccc2[nH]c1=O | 1.64 to 44.5 µM

System: MCF7
Assay: Cytotoxicity against human MCF7 cells assessed as reduction in cell viability after 72 hrs by MTT assay
Type: functional, cell-based
Conditions: MCF7, 72 h

SMILES | IC50
O=C(O)c1cn(C2CC2)c2cc(N3CCN(C/C(=N/OCc4ccc(Cl)cc4)c4ccco4)CC3)c(F)cc2c1=O | ≤ 10 µM

System: T47D
Assay: Cytotoxicity against human T47D cells assessed as reduction in cell viability after 48 hrs by MTT assay
Type: functional, cell-based
Conditions: not given

SMILES | IC50
COc1cc(Cn2cc(Cn3c4ccccc4c(=O)c4cc(Br)ccc43)nn2)cc(OC)c1OC | > 100 µM
COc1cc(Cn2cc(Cn3c4ccccc4c(=O)c4cccc(OC)c43)nn2)cc(OC)c1OC | > 100 µM
CCc1ccc2c(c1)c(=O)c1ccccc1n2Cc1cn(Cc2cc(OC)c(OC)c(OC)c2)nn1 | > 100 µM
COc1ccc(Cn2cc(Cn3c4ccccc4c(=O)c4cc(OC)ccc43)nn2)cc1 | 11 to 16.6 µM
COc1cc(Cn2cc(Cn3c4ccccc4c(=O)c4cc(Cl)ccc43)nn2)cc(OC)c1OC | > 100 µM
COc1cc(Cn2cc(Cn3c4ccccc4c(=O)c4ccccc43)nn2)cc(OC)c1OC | > 100 µM
COc1ccc2c(c1)c(=O)c1ccccc1n2Cc1cn(Cc2cc(OC)c(OC)c(OC)c2)nn1 | > 100 µM
COc1cc(Cn2cc(Cn3c4ccccc4c(=O)c4cccc(F)c43)nn2)cc(OC)c1OC | > 100 µM

Target: RAC-beta serine/threonine-protein kinase (Homo sapiens, UniProt P31751)
Sequence (P31751 whole entry): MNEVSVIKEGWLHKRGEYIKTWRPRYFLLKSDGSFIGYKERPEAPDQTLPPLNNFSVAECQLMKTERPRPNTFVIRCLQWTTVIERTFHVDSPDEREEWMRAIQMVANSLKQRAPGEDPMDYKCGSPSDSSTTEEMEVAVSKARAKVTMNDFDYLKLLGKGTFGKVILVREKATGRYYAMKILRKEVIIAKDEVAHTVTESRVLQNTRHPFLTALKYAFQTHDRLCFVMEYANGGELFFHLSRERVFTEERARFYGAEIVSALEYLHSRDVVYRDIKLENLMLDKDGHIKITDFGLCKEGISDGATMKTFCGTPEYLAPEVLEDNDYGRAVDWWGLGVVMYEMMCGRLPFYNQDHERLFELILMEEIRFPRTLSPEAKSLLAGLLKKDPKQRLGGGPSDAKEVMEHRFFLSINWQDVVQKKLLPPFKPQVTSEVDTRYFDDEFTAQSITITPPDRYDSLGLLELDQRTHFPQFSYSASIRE
Assay: Inhibition of PKBbeta (unknown origin)
Conditions: not given

SMILES | IC50
Cn1c(=O)c(C(=O)/C=C/c2nc3cc(F)ccc3[nH]2)c(-c2ccccc2)c2cc(Cl)ccc21 | 1.64 to 44.5 µM
O=C(/C=C/c1nc2cc(F)ccc2[nH]1)c1c(-c2ccc(F)cc2)c2cc(F)ccc2[nH]c1=O | 1.64 to 44.5 µM
O=C(/C=C/c1nc2cc(Br)ccc2[nH]1)c1c(-c2ccccc2)c2cc(Cl)ccc2[nH]c1=O | 1.64 to 44.5 µM
O=C(/C=C/c1nc2ccccc2[nH]1)c1c(-c2ccccc2)c2cc(Br)ccc2[nH]c1=O | 1.64 to 44.5 µM

Target: RAC-alpha serine/threonine-protein kinase (Homo sapiens, UniProt P31749)
Sequence (P31749 whole entry): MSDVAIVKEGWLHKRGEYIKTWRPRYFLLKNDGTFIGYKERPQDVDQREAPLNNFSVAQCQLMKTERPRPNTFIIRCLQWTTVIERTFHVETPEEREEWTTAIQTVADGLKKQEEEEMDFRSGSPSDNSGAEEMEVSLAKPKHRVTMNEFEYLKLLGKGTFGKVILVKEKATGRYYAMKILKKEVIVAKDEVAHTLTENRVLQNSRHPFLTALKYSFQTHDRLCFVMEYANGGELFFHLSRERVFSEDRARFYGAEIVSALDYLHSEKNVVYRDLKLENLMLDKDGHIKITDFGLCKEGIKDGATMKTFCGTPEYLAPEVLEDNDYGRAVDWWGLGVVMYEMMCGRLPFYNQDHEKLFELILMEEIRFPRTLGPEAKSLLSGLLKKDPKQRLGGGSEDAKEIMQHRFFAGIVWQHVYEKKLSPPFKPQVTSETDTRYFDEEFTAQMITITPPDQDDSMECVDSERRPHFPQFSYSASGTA
Assay: Inhibition of PKBalpha (unknown origin)
Conditions: not given

SMILES | IC50
Cn1c(=O)c(C(=O)/C=C/c2nc3cc(F)ccc3[nH]2)c(-c2ccccc2)c2cc(Cl)ccc21 | 1.64 to 44.5 µM
O=C(/C=C/c1nc2cc(F)ccc2[nH]1)c1c(-c2ccc(F)cc2)c2cc(F)ccc2[nH]c1=O | 1.64 to 44.5 µM
O=C(/C=C/c1nc2cc(Br)ccc2[nH]1)c1c(-c2ccccc2)c2cc(Cl)ccc2[nH]c1=O | 1.64 to 44.5 µM
O=C(/C=C/c1nc2ccccc2[nH]1)c1c(-c2ccccc2)c2cc(Br)ccc2[nH]c1=O | 1.64 to 44.5 µM

System: MCF7
Assay: Cytotoxicity against human MCF7 cells assessed as reduction in cell viability after 48 hrs by MTT assay
Type: functional, cell-based
Conditions: MCF7, 48 h

SMILES | IC50
COc1cc(Cn2cc(Cn3c4ccccc4c(=O)c4cc(Br)ccc43)nn2)cc(OC)c1OC | > 100 µM
COc1cc(Cn2cc(Cn3c4ccccc4c(=O)c4cccc(OC)c43)nn2)cc(OC)c1OC | > 100 µM
CCc1ccc2c(c1)c(=O)c1ccccc1n2Cc1cn(Cc2cc(OC)c(OC)c(OC)c2)nn1 | > 100 µM
COc1ccc(Cn2cc(Cn3c4ccccc4c(=O)c4cc(OC)ccc43)nn2)cc1 | 11 to 16.6 µM
COc1cc(Cn2cc(Cn3c4ccccc4c(=O)c4cc(Cl)ccc43)nn2)cc(OC)c1OC | > 100 µM
COc1cc(Cn2cc(Cn3c4ccccc4c(=O)c4ccccc43)nn2)cc(OC)c1OC | > 100 µM
COc1ccc2c(c1)c(=O)c1ccccc1n2Cc1cn(Cc2cc(OC)c(OC)c(OC)c2)nn1 | > 100 µM
COc1cc(Cn2cc(Cn3c4ccccc4c(=O)c4cccc(F)c43)nn2)cc(OC)c1OC | > 100 µM

System: ACHN
Assay: Cytotoxicity against human ACHN cells assessed as reduction in cell viability after 72 hrs by MTT assay
Type: functional, cell-based
Conditions: not given

SMILES | IC50
O=C(O)c1cn(C2CC2)c2cc(N3CCN(C/C(=N/OCc4ccc(Cl)cc4)c4ccco4)CC3)c(F)cc2c1=O | ≤ 10 µM

System: MDA-MB-231
Assay: Cytotoxicity against human MDA-MB-231 cells assessed as reduction in cell viability after 48 hrs by MTT assay
Type: functional, cell-based
Conditions: MDA-MB-231, 48 h

SMILES | IC50
COc1cc(Cn2cc(Cn3c4ccccc4c(=O)c4cc(Br)ccc43)nn2)cc(OC)c1OC | > 100 µM
COc1cc(Cn2cc(Cn3c4ccccc4c(=O)c4cccc(OC)c43)nn2)cc(OC)c1OC | > 100 µM
CCc1ccc2c(c1)c(=O)c1ccccc1n2Cc1cn(Cc2cc(OC)c(OC)c(OC)c2)nn1 | > 100 µM
COc1ccc(Cn2cc(Cn3c4ccccc4c(=O)c4cc(OC)ccc43)nn2)cc1 | 11 to 16.6 µM
COc1cc(Cn2cc(Cn3c4ccccc4c(=O)c4cc(Cl)ccc43)nn2)cc(OC)c1OC | > 100 µM
COc1cc(Cn2cc(Cn3c4ccccc4c(=O)c4ccccc43)nn2)cc(OC)c1OC | > 100 µM
COc1ccc2c(c1)c(=O)c1ccccc1n2Cc1cn(Cc2cc(OC)c(OC)c(OC)c2)nn1 | > 100 µM
COc1cc(Cn2cc(Cn3c4ccccc4c(=O)c4cccc(F)c43)nn2)cc(OC)c1OC | > 100 µM

Target: T2, Inhibitor of nuclear factor kappa-B kinase subunit alpha (Homo sapiens, UniProt O15111)
T2 sequence (O15111 whole entry): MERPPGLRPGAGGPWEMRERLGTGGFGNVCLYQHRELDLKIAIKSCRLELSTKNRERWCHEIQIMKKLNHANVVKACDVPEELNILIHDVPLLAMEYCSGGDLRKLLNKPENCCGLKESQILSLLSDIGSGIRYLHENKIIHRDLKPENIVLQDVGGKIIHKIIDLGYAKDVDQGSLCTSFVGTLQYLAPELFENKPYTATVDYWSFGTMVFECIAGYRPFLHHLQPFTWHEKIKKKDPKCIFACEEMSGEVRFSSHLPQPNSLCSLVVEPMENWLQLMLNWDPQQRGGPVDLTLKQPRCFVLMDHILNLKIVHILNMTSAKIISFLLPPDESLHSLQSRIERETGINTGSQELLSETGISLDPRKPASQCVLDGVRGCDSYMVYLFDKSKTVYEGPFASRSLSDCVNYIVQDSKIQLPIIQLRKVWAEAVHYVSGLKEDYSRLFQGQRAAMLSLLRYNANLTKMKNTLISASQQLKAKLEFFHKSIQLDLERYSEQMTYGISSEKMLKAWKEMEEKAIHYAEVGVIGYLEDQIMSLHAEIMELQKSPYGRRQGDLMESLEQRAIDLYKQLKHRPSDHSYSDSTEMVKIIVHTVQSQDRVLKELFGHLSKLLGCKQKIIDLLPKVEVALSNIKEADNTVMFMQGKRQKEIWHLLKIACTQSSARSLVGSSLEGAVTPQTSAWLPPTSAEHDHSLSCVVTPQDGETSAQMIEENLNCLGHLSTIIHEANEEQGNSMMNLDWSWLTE
Assay: Inhibition of IKKalpha (unknown origin)
Conditions: not given

SMILES | IC50
Cn1c(=O)c(C(=O)/C=C/c2nc3cc(F)ccc3[nH]2)c(-c2ccccc2)c2cc(Cl)ccc21 | 1.64 to 44.5 µM
O=C(/C=C/c1nc2cc(F)ccc2[nH]1)c1c(-c2ccc(F)cc2)c2cc(F)ccc2[nH]c1=O | 1.64 to 44.5 µM
O=C(/C=C/c1nc2cc(Br)ccc2[nH]1)c1c(-c2ccccc2)c2cc(Cl)ccc2[nH]c1=O | 1.64 to 44.5 µM
O=C(/C=C/c1nc2ccccc2[nH]1)c1c(-c2ccccc2)c2cc(Br)ccc2[nH]c1=O | 1.64 to 44.5 µM

System: A2780
Assay: Cytotoxicity against human A2780 cells assessed as reduction in cell viability after 72 hrs by MTT assay
Type: functional, cell-based
Conditions: A2780, 72 h

SMILES | IC50
O=C(O)c1cn(C2CC2)c2cc(N3CCN(C/C(=N/OCc4ccc(Cl)cc4)c4ccco4)CC3)c(F)cc2c1=O | ≤ 10 µM

System: KB
Assay: Cytotoxicity against human KB cells assessed as reduction in cell viability after 72 hrs by MTT assay
Type: functional, cell-based
Conditions: not given

SMILES | IC50
O=C(O)c1cn(C2CC2)c2cc(N3CCN(C/C(=N/OCc4ccc(Cl)cc4)c4ccco4)CC3)c(F)cc2c1=O | ≤ 10 µM
